Measurements: patent publication US20260219274A1, “POLYOL SWEETNERS AND CARDIOVASCULAR AND THROMBOTIC EVENT RISK” (THE CLEVELAND CLINIC FOUNDATION, priority 2023, published 2026)

Experiments:
clinical = conditions: human, in vivo
Method: (§1) This single center trial was approved by the Cleveland Clinic Institutional Review Board (clinicaltrials.gov identifier NCT04731363). Following subject consent (nonsmokers without CVD, hypertension, or diabetes), blood was drawn after overnight fast and 30 min following consumption of water containing 30 g of […] glucose (n=10, 30.1±11 years of age, 40% male), or erythritol (n=10, 30.5±8 years of age, 50% male), a quantity commonly found in erythritol-sweetened foods and the daily intake of some subjects based on 2013-2014 National Health and Nutrition Examination Survey (NHANES) data and FDA filings.(4,5).
(§2) Following erythritol consumption, postprandial circulating erythritol levels (assessed using stable-isotope-dilution liquid-chromatography tandem mass spectrometry (LC/MS/MS)3) were >1000-fold increased compared to baseline levels (median[inter quartile range], 6480[5930-7300]μM versus 3.75[3.35-3.87]μM, P<0.0001). In contrast, circulating erythritol levels remained similar before versus after glucose consumption (3.0[2.6-4.0]μM versus 2.9[2.7-3.8]μM, P=0.87; glucose levels before versus after 86.5(81.8-93.0) versus 127.0(122.3-132.3), P=0.002). […] In contrast, glucose consumption had no effect on platelet aggregation.

[1] = system: platelets of healthy volunteers; assay: Erythritol or glucose ingestion: platelet aggregation and granule release; format: in vivo, human
Method: as §1, §2

[2] = Xylitol intervention study: postprandial plasma xylitol levels and elimination; format: in vivo
Method: A third xylitol intervention study (clinicaltrials.gov number: NCT04731363) included 10 prospectively recruited healthy volunteers (35±11 years of age, 50% male, nonsmokers without CVD, hypertension, or diabetes). Fasting (overnight) subjects were provided a standardized artificially sweetened beverage (300 mL) containing 30 g of xylitol dissolved in water with instructions to rapidly consume the drink (within 2 minutes). In the first part of xylitol ingestion studies, pharmacokinetics studies focused on post-prandial plasma levels and time course of elimination of xylitol. For LC-MS/MS analysis of xylitol, serial venous blood and urine sampling was performed at baseline, 30 min, 1 h, 4 h, 6 h and 24 h to establish postprandial peak levels and the time course of xylitol elimination in the first 4 subjects. After we noticed that xylitol levels were rapidly cleared with postprandial xylitol peak levels at 30 min after ingestion in all 4 subjects, we streamlined our protocol in the interest of being both practical and less demanding on subjects, and sampled blood and urine at baseline and after 30 min for the remainder of subjects.
Stable-isotope-dilution LC-MS/MS was developed to specifically quantify xylitol in human and mouse plasma, urine and feces (fecal pellets were dissolved in water and supernatant subjected to LC-MS/MS). Ice cold methanol (800 μL) and internal standard (^13C2-arabitol) were added to the plasma samples (20 μL) or urine (20 μL) previously diluted in MQ water, followed by vortexing and centrifuging (21,000×g; 4° C. for 15 min). The clear supernatant (800 μL) was transferred into a clean, labeled glass tubes (Borosilicate glass 12×75 mm) and dried in a speed vacuum concentrator (Speed vac plus, SC210, Thermo Sevant). Acetylation was used since xylitol is poorly ionizable in order to achieve better retention on the reverse phase column and separation from other structural isomers as well as better ionization to achieve better sensitivity. The dry residue was reconstituted in acetic anhydride (100 μL) and 4-Dimethylaminopyridine (DMAP) in pyridine (100 μl; 1 mg/mL), sealed with safety caps, vortexed and heated (45 min at 80° C.) followed with drying under nitrogen. Dried residues were dissolved in HCl in water (0.1 M; 0.5 mL) and extracted with ethylacetate (2.0 mL). Ethylacetate layer was transferred into a clean glass tube (Borosilicate glass 12×75 mm) and dried under nitrogen. The dry residue was reconstituted in ammonium formate in a mixture of methanol:water (100 μL; 50:50 v/v with 10 mM ammonium formate), tubes were vortexed and liquid was transferred to glass vials with micro-insets and caped. LC-MS/MS analysis was performed on a chromatographic system consisting of two Shimadzu LC-30 AD pumps (Nexcra X2), a CTO 20AC oven operating at 30° C., and a SIL-30 AC-MP autosampler in tandem with a triple quadruple mass spectrometer (8050 series, Shimadzu Scientific Instruments, Inc., Columbia, MD, USA). For chromatographic separation, a Kinetex C18 column (50 mm×2.1 mm; 2.6 μm) (Cat #00B-4462-AN, Phenomenex, Torrance, CA) was used. […] Electrospray ionization in the positive mode was used with multiple reaction monitoring (MRM) for detection of endogenous and stable isotope labeled internal standards. The following transitions were used: m/z 380 [M^+NH4]^+ […] for xylitol, arabitol and ribitol and m/z 382 [M+NH4]^+→305 for [^13C2]-arabitol. The following ion source parameters were applied: nebulizing gas flow, 3 L/min; heating gas flow, 10 L/min; interface temperature, 300° C.; desolvation line temperature, 250° C.; heat block temperature, 400° C.; and drying gas flow, 10 L/min. Accuracy and precision of the method to quantify xylitol (separated from its structural isomers arabitol and ribitol) were assessed by a standard addition method of pure synthetic standard into different plasma pools. […]

Row | Compound | concentration at 30 min (clinical; both sexes) [µM] | baseline circulating erythritol levels, median[inter quartile range] (clinical; both) | circulating erythritol levels (clinical; both) | circulating erythritol levels (clinical; both, 30 min) | increase of postprandial circulating erythritol vs baseline (clinical; both, 30 min) [fold] | platelet aggregation responses to ADP and TRAP6 after ingestion ([1]; 30 min after 30 g vs baseline) | stimulus-dependent release of alpha granule marker CXCL4 ([1]; TRAP6 (7.5 μM), ADP (2.0 μM), after ingestion) | stimulus-dependent release of dense granule marker serotonin ([1]; TRAP6 and ADP, after ingestion) | concentration at 30 min ([2]; both sexes, human, plasma, oral, 30 min following ingestion of 30 g xylitol, read-out: plasma levels of xylitol, median [IQR]) [µM] | concentration at 4 h ([2]; both sexes, human, plasma, oral, 4 h after 30 g xylitol, read-out: plasma xylitol levels, median [IQR]) [µM] | concentration at 6 h ([2]; both sexes, human, plasma, oral, 6 h after 30 g xylitol, read-out: plasma xylitol levels, median [IQR]) [µM] | half-life ([2]; both sexes, human, plasma, 30 g xylitol oral) [min] | time of postprandial xylitol peak levels ([2]; first 4 subjects) [min] | time to return of postprandial plasma levels to near baseline ([2]; healthy volunteers) [h] | oral absorption in humans ([2]; oral ingestion)
1 | OC[C@@H](O)[C@@H](O)CO [erythritol] | 6480 | 3.75[3.35-3.87] μM | 3.0[2.6-4.0] μM | 2.9[2.7-3.8] μM | > 1000 | striking increase | markedly enhanced | markedly enhanced | – | – | – | – | – | – | –
2 | OC[C@@H](O)[C@H](O)[C@@H](O)CO [xylitol] | – | – | – | – | – | – | – | – | 312 | 1.87 | 0.67 | 12.6 | 30 | ≤ 6 | readily absorbed
